Patent EP4736861A1, “ORAL COMPOSITION CONTAINING INORGANIC POROUS BODY” (Tanabe Pharma Corporation, priority 2023, dated 2025)

Test: PBPK model: construction and simulation of plasma concentration and urinary excretion
Conditions: PBPK parameter, mice
Source text: For the construction, in vivo data from the vehicle group of the previously described "In Vivo Study Using a Choline-Load Fasted Mouse Model" and in vivo data from the single-dose PK study were used.
The following steps were applied for the construction of the PBPK model. • * The liver-to-plasma partition coefficient, blood cell-to-plasma partition coefficient, and plasma protein unbound fraction for d9-TMA and d9-TMAO were cited from the report by Shimizu et al.^1), assuming no species difference. • * The liver volume and hepatic blood flow rate were cited from the report by Yamashita et al.^2). • * Using the data from the single intravenous dose PK study of d9-TMA and d9-TMAO, the PK parameters for d9-TMA and d9-TMAO were estimated. […] For d9-TMA, assuming that adsorption equilibrium is reached in the gastrointestinal tract, it was considered to follow the formula: inhibition ratio of d9-TMA absorption from gastrointestinal tract = theoretical acid amount of unadsorbed zeolite / (water volume in the colon × dissociation constant + theoretical acid amount of unadsorbed zeolite), and the dissociation constant of zeolite and d9-TMA was calculated. The water volume in the colon was cited from the value in SimCYP (V23) manufactured by Certara.

Row | Structure (SMILES) | conversion ratio from d9-choline to d9-TMA
1 | [2H]C([2H])([2H])[N+](CCO)(C([2H])([2H])[2H])C([2H])([2H])[2H].[Cl-] [d9-choline] | 0.9324

Test: not given
Conditions: PBPK parameter; from Shimizu et al.; cited from earlier work

Row | Structure (SMILES) | blood cell-to-plasma partition coefficient | liver-to-plasma partition coefficient | plasma protein unbound fraction
2 | [2H]C([2H])([2H])[N+]([O-])(C([2H])([2H])[2H])C([2H])([2H])[2H] [d9-TMAO] | 0.845 | 0.675 | 0.714
3 | [2H]C([2H])([2H])N(C([2H])([2H])[2H])C([2H])([2H])[2H] [d9-TMA] | 0.719 | 0.752 | 0.9

Test: not given
Conditions: acidic concomitant drugs; source not stated; cited from earlier work

Row | Structure (SMILES) | pKa
4 | CC(=O)Nc1ccc(CC(=O)O)cc1 [Actarit] | 3.94
5 | Oc1ncnc2[nH]ncc12 [Allopurinol] | 9.50

Same assay, conditions: basic concomitant drugs; source not stated; cited from earlier work

Row | Structure (SMILES) | pKa of conjugate acid
6 | NC(=O)N1c2ccccc2C=Cc2ccccc21 [Carbamazepine] | 7
7 | COc1ccccc1OCCNCC(O)COc1cccc2[nH]c3ccccc3c12 (stereo not shown) [Carvedilol] | 7.8
8 | CCC[C@@H]1C[C@@H](C(=O)N[C@@H]([C@H]2O[C@H](SC)[C@H](O)[C@@H](O)[C@H]2O)[C@@H](C)O)N(C)C1 [Lincomycin] | 7.6
9 | CC12CC3CC(C)(C1)CC(N)(C3)C2 [Memantine] | 10.58
10 | Cc1ncc([N+](=O)[O-])n1CCO [Metronidazole] | 2.6
11 | Clc1ccc(COC(Cn2ccnc2)c2ccc(Cl)cc2Cl)c(Cl)c1 (stereo not shown) [Miconazole] | 5.65
12 | OCCN1C[C@H](O)[C@@H](O)[C@H](O)[C@H]1CO [Miglitol] | 5.9
13 | CN1CCN2c3ncccc3Cc3ccccc3C2C1 (stereo not shown) [Mirtazapine] | 3.71
14 | Cc1nccn1CC1CCc2c(c3ccccc3n2C)C1=O (stereo not shown) [Ondansetron] | 7.4
15 | CCOC(=O)C1=C[C@@H](OC(CC)CC)[C@H](NC(C)=O)[C@@H](N)C1 [Oseltamivir] | 7.75
